Experimental data taken from patent US20020193425A1, “Cancer chemopreventative compounds and compositions and methods of treating cancers” (priority 2001, published 2002).

Experiments:
c-Myc oncoprotein, NB4 = experiment: c-Myc oncoprotein expression, western blotting; format: cell-based
Description: (§1) The expression of c-Myc was assessed by immunoblots as previously described. In brief, cells (10^6) were treated and harvested at various time intervals, and whole-cell pellets were lysed with detergent lysis buffer (1 ml/10^7 cells, 50 mM Tris-HCl buffer, pH 8.0, 150 mM NaCl, 1 mM DTT, 0.5 mM EDTA, 1% Nonidet® P40, 0.5% sodium deoxycholate, 0.1% sodium dodecylsulfate, 100 μg/ml phenylmethylsulfonyl fluoride, 1 μg/ml aprotinin, 2 μg/ml leupeptin and 100 μM sodium vanadate) to obtain protein lysates. Protein concentrations were quantified using a bicinchoninic acid kit. Since c-Myc is a labile protein, cell lysates were not frozen, but stored at 4° C., until all protein lysates were prepared for a particular cell line, and then western blots were performed immediately. Total protein ([…]) was separated by 10% SDS-PAGE, electroblotted to PVDF membranes, and blocked overnight with 5% nonfat dry milk. The membrane was incubated with a solution of the primary antibody (2.5 μg/ml), prepared in 1% blocking solution, for 2 h at room temperature, washed three-times for 15 min with PBS-T (PBS with 0.1%, v/v, Tween 20), and incubated with a 1:2500 dilution of horseradish peroxidase-conjugated secondary antibody for 30 min at 37° C. Blots were again washed three-times for 10 min each in PBS-T and developed by enhanced chemiluminescence (Amersham). Membranes were exposed to Kodak Biomax film and the resulting film was analyzed using Kodak 1D Image Analysis software. Membranes were then stripped and reprobed for the quantification of bactin.
(§2) Cells were treated with solvent (0.1% v/v DMSO, control), brusatol (25 ng/ml) or bruceantin (10 ng/ml) for 4 or 24 h, then analyzed by western blotting. Membranes were probed for c-Myc, and then stripped and probed for β-actin as an internal control.
(§3) Cells were treated with brusatol (25 ng/ml) or bruceantin (10 ng/ml) for 4 or 24 h, and then analyzed for c-Myc and β-actin expression using western blotting techniques. Results are expressed as percentage of c-Myc oncoprotein of control (0.1%, v/v, DMSO treated cells) values. Results were normalized relative to β-actin.

c-Myc oncoprotein, K562 = experiment: c-Myc oncoprotein expression, western blotting; format: cell-based
Description: as §1, §2, §3

[1] = system: c-Myc oncoprotein, Kasumi-1; experiment: c-Myc oncoprotein expression, western blotting; format: cell-based
Description: as §1, §2, §3

c-Myc oncoprotein, Daudi = experiment: c-Myc oncoprotein expression, western blotting; format: cell-based
Description: as §1, §2, §3

c-myc mRNA, HL-60 = experiment: c-myc mRNA levels, real time RT-PCR; format: cell-based, human
Description: RNA was extracted from 10^6 cells using TRIZOL® Reagent (Life Technologies). Following isopropanol precipitation, the pellet was washed in 75% aqueous ethanol and the RNA was dissolved in […] of diethyl pyrocarbonate (DEPC)-treated distilled water. Subsequently, the samples were stored at −80° C. RNA quantitation was performed by UV measurement at 260 nm. The cDNA synthesis was performed in a total volume of […], containing 1×TaqManÒ RT buffer, 5.5 mM MgCl2, 2 mM dNTPs mixture, 2.5 mM random hexamers, 4 U RNase inhibitor, 12.5 U MultiScriber RT (Perkin Elmer/Applied Biosystems) and […] of RNA. The reaction was performed for 10 min at 25° C., followed by 48° C. for 30 min and a 5 min incubation step at 95° C. After the reaction, […] of DEPC-treated distilled water was added to each sample and […] was used for each PCR.
The PCR and subsequent analyses were performed in the GeneAmp 5700 Sequence Detection System (Applied Biosystems). Real-time quantitation was performed using the TaqMan technology of Applied Biosystems (Foster City, Calif., USA). c-Myc primers and probe sequences (5′ to 3′) were as follows: […], […] and […] (Applied Biosystems).
PCR reactions were performed in triplicate. The PCR reaction mixture contained 300 nM of both primers, 150 nM TaqMan probe, and 1×TaqMan Universal Master Mix (Applied Biosystems). The reactions first were incubated at 50° C. for 2 min, followed by 10 min at 95° C. The PCR itself consisted of 40 cycles with 15 s at 95° C. and 1 min at 60° C. each. The fluorescence signal was measured during the last 30 s of the annealing/extension phase. After the PCR, a fluorescence threshold value was set and threshold cycle (Ct) values were determined, i.e., the fractional cycle at which the fluorescence signal reached this threshold. These values were used for further calculations.
β-Actin (TaqMan PDAR control, Applied Biosystems) was used as an endogenous reference to correct for any differences in the amount of total RNA used for a reaction and to compensate for different levels of inhibition during reverse transcription of RNA into cDNA. c-Myc and β-actin expression were related to a standard curve derived from a serial dilution of K562 cDNA with dH2O. Also, c-Myc and β-actin quantities were expressed in terms of ng of K562 RNA yielding the same level of expression. Subsequently, normalization was achieved by dividing the expression level of c-Myc by the β-actin expression level. Finally, results were expressed as a percentage, where the level of c-Myc observed in the DMSO-treated samples was considered as 100%.
Cells were treated with brusatol (25 ng/ml) or bruceantin (10 ng/ml) for 4 or 24 h and then analyzed for c-myc and β-actin mRNA using real time RT-PCR. Results are shown as percentage of c-myc mRNA expression of control (0.1%, v/v, DMSO) values. Results are the mean of triplicate samples (±standard deviation). c-Myc mRNA values were normalized relative to β-actin.

[2] = system: DMBA-induced preneoplastic lesion formation in mouse mammary organ culture; experiment: Inhibition of DMBA-induced preneoplastic lesion formation in mouse mammary organ culture (MMOC); format: cell-based; settings: Mus musculus; quassinoid (2 μM); in comparison with a DMBA control
Description: The identification of potential inhibitors of DMBA-induced preneoplastic lesion formation in mammary organ culture has been described previously. Briefly, four-week old BALB/c female mice (Charles River) were pretreated for nine days with 1 μg estradiol and 1 mg progesterone. The thoracic pair of mammary glands was dissected on silk and incubated with growth-promoting hormones in the presence of test compounds (2 μM) for 10 days. DMBA ([…]) was included in the medium (containing […]) for 24 hours on the third day of culture to induce preneoplastic mammary lesions. Following 10 days of growth promoting phase, all hormones except insulin were withdrawn and the glands were allowed to regress to lobuloalveolar structures during a 14-day incubation period. Glands then were fixed in 10% buffered formalin and stained with alum carmine. Incidence of lesion formation (percentage of glands per group with mammary lesions) was recorded, and percent inhibition was calculated by comparison with the DMBA control group that was not treated with test sample. Active samples induce 60% inhibition, based on historical controls.

For `COC(=O)[C@@]12OC[C@]34[C@H]([C@@H](O)[C@@H]1O)[C@@]1(C)CC(=O)C(O)=C(C)[C@@H]1C[C@H]3OC(=O)[C@H](OC(=O)C=C(C)C)[C@@H]24` [compound 1, brusatol], the “c-Myc oncoprotein, percentage of control” value (c-Myc oncoprotein, NB4; Brusatol (25 ng/ml), 4 h) was 0%, the “c-Myc oncoprotein, percentage of control” value (c-Myc oncoprotein, NB4; Brusatol (25 ng/ml), 24 h) was 0% and the “decrease of c-Myc protein levels” value (c-Myc oncoprotein, K562; 4 h treatment) was 94%. The “c-Myc oncoprotein, percentage of control” value (c-Myc oncoprotein, K562; Brusatol (25 ng/ml), 4 h) was 6%, the “c-Myc oncoprotein, percentage of control” value (c-Myc oncoprotein, K562; Brusatol (25 ng/ml), 24 h) was 13% and the “c-Myc oncoprotein, percentage of control” value ([1]; Brusatol (25 ng/ml), 4 h) was 66%. The “c-Myc oncoprotein, percentage of control” value ([1]; Brusatol (25 ng/ml), 24 h) was 112%, the “c-Myc oncoprotein, percentage of control” value (c-Myc oncoprotein, Daudi; Brusatol (25 ng/ml), 4 h) was 79% and the “c-Myc oncoprotein, percentage of control” value (c-Myc oncoprotein, Daudi; Brusatol (25 ng/ml), 24 h) was 10%. The “decrease in c-Myc mRNA levels” value (c-myc mRNA, HL-60; 4 h treatment) was “about 50%”, the “c-myc mRNA expression, percentage of control” value (c-myc mRNA, HL-60; Brusatol (25 ng/ml), 4 h) was 54 ± 2 % and the “c-myc mRNA expression, percentage of control” value (c-myc mRNA, HL-60; Brusatol (25 ng/ml), 24 h) was 11 ± 2 %. For the same compound, the inhibition at 2 µM [2] was 70%.

With `COC(=O)[C@@]12OC[C@]34[C@H]([C@@H](O)[C@@H]1O)[C@@]1(C)CC(=O)C(O)=C(C)[C@@H]1C[C@H]3OC(=O)[C@H](OC(=O)/C=C(\C)C(C)C)[C@@H]24` [compound 2, bruceantin] the “c-Myc oncoprotein, percentage of control” value (c-Myc oncoprotein, NB4; Bruceantin (10 ng/ml), 4 h) was 0%, the “c-Myc oncoprotein, percentage of control” value (c-Myc oncoprotein, NB4; Bruceantin (10 ng/ml), 24 h) was 0% and the “c-Myc oncoprotein, percentage of control” value (c-Myc oncoprotein, K562; Bruceantin (10 ng/ml), 4 h) was 2%. The “c-Myc oncoprotein, percentage of control” value (c-Myc oncoprotein, K562; Bruceantin (10 ng/ml), 24 h) was 12%, the “c-Myc oncoprotein, percentage of control” value ([1]; Bruceantin (10 ng/ml), 4 h) was 70% and the “c-Myc oncoprotein, percentage of control” value ([1]; Bruceantin (10 ng/ml), 24 h) was 87%. For the same compound, the “c-Myc oncoprotein, percentage of control” value (c-Myc oncoprotein, Daudi; Bruceantin (10 ng/ml), 4 h) was 67%, the “c-Myc oncoprotein, percentage of control” value (c-Myc oncoprotein, Daudi; Bruceantin (10 ng/ml), 24 h) was 2% and the “c-myc mRNA expression, percentage of control” value (c-myc mRNA, HL-60; Bruceantin (10 ng/ml), 4 h) was 76 ± 9 %. The “c-myc mRNA expression, percentage of control” value (c-myc mRNA, HL-60; Bruceantin (10 ng/ml), 24 h) was 16 ± 0 % and the inhibition at 2 µM [2] was 70%.
